Results: US20190290710A1, “USE OF GLUC[…] TO ENHANCE RECOMBINANT ADENO-[…] YIELD” (priority 2016, published 2019)
Where two headings read alike, the source gives them in different places.

Key:
HeLa host cell line [1] = assay type: cell-based
Method: A number of cell culture additives including metals, trace supplements, salts, and others, were tested for their ability to increase production of recombinant adeno-associated virus vector (rAAV) by a HeLa host cell line.

HeLa host cell line [2] = test: rAAV yield by qPCR, HeLa host cell line in shaker flasks, glucocorticoid analogs; assay type: cell-based; conditions: shaker flask, 0.1 and 1 μM, 4 days, FIG. 2
Method: FIG. 2 is a bar graph depicting the effect of glucocorticoid analogs on rAAV production from a HeLa producer cell line cultured in a shaker flask. Hydrocortisone (hydr), predinosolone (pred) and dexamethasone (dex) were added at the indicated concentrations and after 4 days rAAV yield (GC/ml) was measured by qPCR. Each value represents the mean of two independent experiments.
DNase-resistant particles (DRP) can be quantified by real-time quantitative polymerase chain reaction (qPCR) (DRP-qPCR) in a thermocycler (for example, an iCycler iQ 96-well block format thermocycler (Bio-Rad, Hercules, Calif.)). Samples containing rAAV particles are incubated in the presence of DNase I (100 U/ml; Promega, Madison, Wis.) at 37° C. for 60 min, followed by proteinase K (Invitrogen, Carlsbad, Calif.) digestion (10 U/ml) at 50° C. for 60 min, and then denatured at 95° C. for 30 min. The primer-probe set used should be specific to a non-native portion of the rAAV vector genome, for example, the poly(A) sequence of the protein of interest. […]
Stock solutions of dexamethasone (dex), prednisolone (pred), and hydrocortisone (hydr) dissolved in DMSO were added to the cell culture to final concentrations of 0.1 and 1 μM. After 4 days, rAAV yield was determined by measuring both the secreted (extracellular) and total rAAV in the cell culture harvest by qPCR.

Compound: [Ca+2] [calcium]
- media precipitation (HeLa host cell line [1]; calcium concentrations higher than 0.19 g/L): causing media precipitation
- impact on rAAV yield (HeLa host cell line [1]; supplementation with 0.19 g/L of calcium): minimal impact

Compound: [Cu] [copper]
- impact on rAAV yield (HeLa host cell line [1]; copper concentration increased from 0.1 μM to 10 μM): No or minimal impact

Compound: C[C@]12CCC(=O)C=C1CC[C@@H]1[C@@H]2[C@@H](O)C[C@@]2(C)[C@H]1CC[C@]2(O)C(=O)CO [hydrocortisone]
- rAAV yield (extracellular and total) (HeLa host cell line [2]): increased rAAV yield

Compound: [Fe] [iron]
- impact on rAAV yield (HeLa host cell line [1]; iron concentration increased from 0.1 mg/L to 10 mg/L): No or minimal impact

Compound: [Mg+2] [magnesium]
- impact on rAAV yield (HeLa host cell line [1]; magnesium concentration increased from 1 mg/L to 30 mg/L): slightly negative impact

Compound: C[C@]12C=CC(=O)C=C1CC[C@@H]1[C@@H]2[C@@H](O)C[C@@]2(C)[C@H]1CC[C@]2(O)C(=O)CO [prednisolone]
- rAAV yield (extracellular and total) (HeLa host cell line [2]): increased rAAV yield

Compound: NCCCCN [putrescine]
- effect on rAAV yield (HeLa host cell line [1]): negative effect

Compound: NCCCNCCCCNCCCN [spermine]
- effect on rAAV yield (HeLa host cell line [1]): negative effect
